Consider one compound from ChEMBL document CHEMBL5608197, “Optimization of pyrazolopyridine 4-carboxamides with potent antimalarial activity for which resistance is associated with the P. falciparum transporter ABCI3” (Eur J Med Chem, 2024).

Usually thermodynamic solubility stands for solubility found after equilibrating the solid with the medium. What is called logD is the decadic logarithm of the distribution of all forms, ionised or not, between an organic phase and buffer at a given pH. Read a high logD as higher lipophilicity. By EC50 is commonly meant the midpoint of the concentration-response curve. For orientation: inhibition means how much of the control response was suppressed. Usually EC90 stands for the concentration at which the effect reaches the 90% level.

The structures appear in SMILES notation. Values after ≈ are worked out from the molar mass of the structure shown.

Data set [1] in a line: Intrinsic clearance in rat hepatocytes at 1 uM measured per million cells for 90 mins by LC-MS/MS analysis. The note with it: read-out: CLH. The format is ADME, cell-based, Hepatocyte.
Data set [2] is described as follows: Aqueous solubility of the compound in PBS buffer at pH 7.4 at 200 uM incubated for 2 hrs under shaking condition by miniaturized shake flask method. It is filed as physicochemical.
The nature of data set [3]: Permeability of the compound across apical to basolateral side in human Caco-2 cells at pH 7.4. It is filed as ADME, cell-based. The note with it: Caco-2, pH 7.4, read-out: permeability.
The nature of data set [4]: Lipophilicity, elogD of the compound in 1-Octanol/PBS at pH 7.4 at 7.5 uM incubated for 2 hrs by miniaturized shake flask method. It is filed as physicochemical.
Data set [5] can be described thus: Permeability of the compound across basolateral to apical side in human Caco-2 cells at pH 7.4. The format is ADME, cell-based. The note with it: Caco-2, pH 7.4, read-out: permeability. (Caco-2 monolayers are a common model of the intestinal barrier.)
Data set [6] deals with Voltage-gated inwardly rectifying potassium channel KCNH2 (Homo sapiens, UniProt Q12809). In words: Inhibition of hERG expressed in CHO cells by patch clamp method. It is filed as toxicity, cell-based. (The hERG channel carries a current that helps repolarise heart muscle cells.)
Voltage-gated inwardly rectifying potassium channel KCNH2, sequence (Q12809 whole entry): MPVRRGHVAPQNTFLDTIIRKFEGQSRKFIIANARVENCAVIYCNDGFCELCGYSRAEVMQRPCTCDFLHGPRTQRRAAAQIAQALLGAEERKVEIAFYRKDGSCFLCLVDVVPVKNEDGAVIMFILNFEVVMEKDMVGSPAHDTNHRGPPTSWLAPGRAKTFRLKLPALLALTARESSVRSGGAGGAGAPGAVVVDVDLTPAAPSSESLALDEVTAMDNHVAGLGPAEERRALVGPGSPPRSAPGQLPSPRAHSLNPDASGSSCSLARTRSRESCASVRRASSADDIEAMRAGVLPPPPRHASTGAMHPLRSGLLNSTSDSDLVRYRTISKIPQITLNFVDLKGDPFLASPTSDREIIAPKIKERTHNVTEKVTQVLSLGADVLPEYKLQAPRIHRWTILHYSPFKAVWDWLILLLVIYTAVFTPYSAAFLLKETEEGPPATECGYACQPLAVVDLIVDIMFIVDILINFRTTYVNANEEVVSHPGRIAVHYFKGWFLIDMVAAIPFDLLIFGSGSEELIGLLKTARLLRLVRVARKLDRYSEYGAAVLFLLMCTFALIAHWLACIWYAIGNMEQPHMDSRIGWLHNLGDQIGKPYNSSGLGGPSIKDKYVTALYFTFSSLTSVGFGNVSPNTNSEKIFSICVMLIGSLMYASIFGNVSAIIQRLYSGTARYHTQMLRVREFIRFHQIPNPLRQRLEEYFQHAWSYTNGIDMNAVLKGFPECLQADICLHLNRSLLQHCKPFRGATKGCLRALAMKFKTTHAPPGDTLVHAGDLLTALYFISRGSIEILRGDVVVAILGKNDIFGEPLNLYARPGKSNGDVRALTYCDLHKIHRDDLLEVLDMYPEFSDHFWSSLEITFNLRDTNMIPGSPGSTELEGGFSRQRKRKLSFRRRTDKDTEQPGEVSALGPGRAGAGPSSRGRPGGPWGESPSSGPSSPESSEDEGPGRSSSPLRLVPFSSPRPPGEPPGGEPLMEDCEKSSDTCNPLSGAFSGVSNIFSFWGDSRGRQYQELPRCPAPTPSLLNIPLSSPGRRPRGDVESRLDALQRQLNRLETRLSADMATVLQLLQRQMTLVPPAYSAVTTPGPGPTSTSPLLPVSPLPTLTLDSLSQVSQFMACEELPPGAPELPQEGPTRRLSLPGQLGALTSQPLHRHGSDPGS
Another data set has as its target CYP2C19 (Homo sapiens, UniProt P33261). The data set is described as follows: Inhibition of CYP2C19 (unknown origin) at 10 uM relative to control. The format is ADME.
The next data set concerns the target CYP2C9 (Homo sapiens, UniProt P11712). The data set is described as follows: Inhibition of CYP2C9 (unknown origin) at 10 uM relative to control. It is filed as ADME.
Another data set addresses CYP3A4 (Homo sapiens, UniProt P08684). In words: Inhibition of CYP3A4 (unknown origin) at 1 uM relative to control. It is filed as ADME.
The subject of data set [7] is Plasmodium falciparum. The data set is described as follows: Antiplasmodial activity against drug-resistant Plasmodium falciparum Dd2-B2 in 2x10^7 bulk culture selection assessed as concentration required to complete parasite killing measured on day 2 under initial selection drug pressure concentration of 3XEC50 by Minimum inoculum of resistance analysis. The format is functional. The conditions noted are these: time 2 day.

Data set [8] deals with Plasmodium falciparum. The data set is described as follows: Resistance ratio of EC50 for antiplasmodial activity against drug-resistant recrudescent Plasmodium falciparum Dd2-B2 in 2x10^5 to 2x10^6 bulk culture selection measured on day 15 under initial selection drug pressure concentration of 3XEC50 to EC50 for antiplasmodial activity against Plasmodium flaciparum Dd2-B2 measured after 72 hrs. The format is functional.

For data set [9], the system named is Plasmodium falciparum. The data set is described as follows: Resistance ratio of EC50 for antiplasmodial activity against drug-resistant recrudescent Plasmodium falciparum Dd2-B2 in 2x10^7 bulk culture selection measured on day 15 under initial selection drug pressure concentration of 3XEC50 to EC50 for antiplasmodial activity against Plasmodium flaciparum Dd2 measured after 72 hrs. It is filed as functional.

For data set [10], the system named is Plasmodium falciparum. The data set is described as follows: Antiplasmodial activity against drug-resistant recrudescent Plasmodium falciparum Dd2-B2 in 2x10^5 bulk culture selection assessed as inhibition of parasite growth incubated for 72 hrs by flow cytometry. The format is functional, organism-based. In general terms: In flow cytometry, cells or beads pass a laser one at a time.

Data set [11] concerns Plasmodium falciparum. The data set is described as follows: Antiplasmodial activity against ring stage of Plasmodium falciparum 3D7 expressing ABCI3-HAreg assessed as inhibition of parasite proliferation incubated for 72 hrs in absence of ABCI3 inhibitor, GlcN by SYBR dye based flow cytometry. It is filed as functional, organism-based. The conditions noted are these: 3D7, 72 h.

The nature of data set [12]: Ratio of EC50 for antiplasmodial activity against ring stage of Plasmodium falciparum 3D7 expressing ABCI3-HAreg in absence of ABCI3 inhibitor, GlcN to EC50 for antiplasmodial activity against ring stage of Plasmodium falciparum 3D7 expressing ABCI3-HAreg in presence of ABCI3 inhibitor, GlcN. The format is functional.
The subject of data set [13] is Plasmodium falciparum. The data set is described as follows: Antiplasmodial activity against multidrug-resistant Plasmodium falciparum 7G8 infected in erythrocytes assessed as inhibition of parasite growth incubated for 72 hrs by [3H]hypoxanthine incorporation based microbeta counting analysis. The format is functional, organism-based. The note with it: 7G8, Erythrocyte.

The subject of data set [14] is Plasmodium falciparum. The data set is described as follows: Antiplasmodial activity against multidrug-resistant Plasmodium falciparum Cam3.1 infected in erythrocytes assessed as inhibition of parasite growth incubated for 72 hrs by [3H]hypoxanthine incorporation based microbeta counting analysis. It is filed as functional, organism-based. The note with it: Cam3.1, Erythrocyte.

CYP3A4, sequence (P08684 whole entry): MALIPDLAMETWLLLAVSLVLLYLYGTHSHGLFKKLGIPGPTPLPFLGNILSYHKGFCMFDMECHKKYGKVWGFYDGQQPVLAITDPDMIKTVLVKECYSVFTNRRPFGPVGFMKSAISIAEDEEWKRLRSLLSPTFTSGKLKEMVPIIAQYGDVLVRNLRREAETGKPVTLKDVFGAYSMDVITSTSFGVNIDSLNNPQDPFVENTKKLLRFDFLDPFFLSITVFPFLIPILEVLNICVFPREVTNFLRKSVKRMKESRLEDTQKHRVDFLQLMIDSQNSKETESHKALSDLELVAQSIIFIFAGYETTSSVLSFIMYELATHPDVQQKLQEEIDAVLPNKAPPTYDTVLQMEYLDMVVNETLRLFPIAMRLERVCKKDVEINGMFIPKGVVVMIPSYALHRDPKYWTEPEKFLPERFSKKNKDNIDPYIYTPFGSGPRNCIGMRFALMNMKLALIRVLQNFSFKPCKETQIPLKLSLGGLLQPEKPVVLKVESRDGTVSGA
CYP2C9, sequence (P11712 whole entry): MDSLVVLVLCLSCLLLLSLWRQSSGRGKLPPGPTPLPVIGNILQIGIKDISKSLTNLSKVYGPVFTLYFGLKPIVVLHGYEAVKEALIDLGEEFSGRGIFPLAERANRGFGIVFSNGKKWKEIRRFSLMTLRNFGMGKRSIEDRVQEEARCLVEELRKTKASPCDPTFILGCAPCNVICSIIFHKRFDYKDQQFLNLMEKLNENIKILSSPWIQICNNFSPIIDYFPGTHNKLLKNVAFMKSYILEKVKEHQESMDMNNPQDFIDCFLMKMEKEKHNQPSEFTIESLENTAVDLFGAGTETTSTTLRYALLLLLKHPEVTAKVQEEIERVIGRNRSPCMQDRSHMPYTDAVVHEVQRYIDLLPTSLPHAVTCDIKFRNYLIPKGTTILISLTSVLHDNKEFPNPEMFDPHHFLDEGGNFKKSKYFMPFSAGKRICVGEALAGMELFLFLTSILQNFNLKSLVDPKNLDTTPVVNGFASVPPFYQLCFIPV
CYP2C19, sequence (P33261 whole entry): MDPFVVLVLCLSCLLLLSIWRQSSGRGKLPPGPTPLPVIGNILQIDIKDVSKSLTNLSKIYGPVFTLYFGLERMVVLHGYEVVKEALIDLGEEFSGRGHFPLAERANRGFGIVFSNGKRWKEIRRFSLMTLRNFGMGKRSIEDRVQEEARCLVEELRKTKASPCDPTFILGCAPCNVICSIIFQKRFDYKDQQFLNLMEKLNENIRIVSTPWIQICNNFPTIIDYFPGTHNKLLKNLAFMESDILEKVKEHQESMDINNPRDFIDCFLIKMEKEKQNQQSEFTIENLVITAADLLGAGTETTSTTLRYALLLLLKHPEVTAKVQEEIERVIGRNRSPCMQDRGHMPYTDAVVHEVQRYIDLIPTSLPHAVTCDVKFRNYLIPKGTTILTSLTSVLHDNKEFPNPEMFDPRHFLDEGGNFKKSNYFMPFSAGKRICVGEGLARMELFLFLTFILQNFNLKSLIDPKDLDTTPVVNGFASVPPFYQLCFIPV

Consider `Cc1nn(C(C)(C)C)c2nc(C3CC3)cc(C(=O)N3CCOc4ccncc43)c12`, for which the hepatocyte CLint at 1 µM in data set [1] came to 26 µL/min/1e6 cells. This compound came in with a solubility (thermodynamic) at 2 h, 200 µM in data set [2] of 69 µM (≈ 27 µg/mL). The Papp A→B in data set [3] came out at 17.1 ×10⁻⁶ cm/s. In data set [4], the logD at 2 h, 7.5 µM stood at 4.1. The Papp B→A in [5] is 23.7 ×10⁻⁶ cm/s. The EC50 in [6] was 16700 nM; in the data set on Plasmodium falciparum [10] (Dd2-B2, 72 h), 28.3 nM; in the data set on Plasmodium falciparum [11] it was 2.7 nM; in the data set with Plasmodium falciparum [13] it was 8 nM; in the data set with Plasmodium falciparum [14], 6 nM. In addition, the inhibition at 10 µM on CYP2C19 stood at 17.4%; against CYP2C9 it was 57.5%. On CYP3A4, this compound yielded an inhibition at 1 µM of 66.2%. In the data set on Plasmodium falciparum [7], the Activity was found to be 28 nM. In addition, the figures for the Ratio EC50 (with Plasmodium falciparum [8]; with Plasmodium falciparum [9]; in data set [12]) were 3, 5 and 3.4, respectively. Besides, in the data set on Plasmodium falciparum [10] (Dd2-B2, time 72 hrs), the EC90 stood at 68.3 nM.
